Source: patent US6559125B1, “Polyamide-alkylator conjugates and related products and method” (priority 2000, dated 2003)

Columns and labels:
[1] = water, pH 7.5, 37° C.; cited from earlier work
[2] = tested on: match binding sites (5′-WGCWGCW-3′) on a 241 bp restriction fragment derived from the HIV-1 promoter region; experiment: Quantitative DNase I footprint titration; details: for equilibrium association constant Ka: 22° C., pH 7.0
Description: Jones, K. A. & Peterlin, B. M. (1994), Annual Review of Biochemistry 63, 717-743. Left, storage phosphor autodiograms of 8% denaturing polyacrylamide gels used to separate the fragments generated by DNase I digestion. All reactions contained 20,000 cpm restriction fragment, 10 mM Tris.HCl (pH 7.0), 10 mM KCl, 10 MM MgCl2 and 5 mM CaCl and were performed at 22° C. Lane 1, intact DNA; lane 2, A-specific reaction; lane 3, G-specific reaction; lane 4, DNase I standard; lanes 5-17, 1 pM, 2 pM, 5 pM, 10 pM, 20 pM, 50 pM, 100 pM, 200 pM, 500 pM, 1 nM, 2 nM, 5 nM, 10 nM, respectively. The 5′-AGCTGCT-3′ (A), 5′-TGCAGCA-3′ (B), and 5′-TGCTGCT-3′ (E) match sites are shown in boxes on the right side of the autoradiogram (SEQ ID NO:4).
FIG. 5(b) depicts data from quantitative DNase I footprint titration experiments for ImPy-β-ImPy-(R)^CHL(OH)γ-ImPy-βImPy-β-Dp (3) binding to the 5′-AGCTGCT-3′ (A) and 5′-TGCAGCA-3′ sites (B). θnorm points were obtained using storage phosphor autoradiography and processed as described in the experimental section The data for the binding of 3 to 5′-AGCTGCT-3′ is indicated by red circles and binding to 5′-TGCAGCA-3′ by blue circles. The solid curves are best-fit Langmuir binding titration isotherms obtained from a nonlinear least-squares algorithm eq 2 (n=1).
All reactions were executed in a total volume of 400 μl. […]
Data from the footprint titration gels were obtained using a Molecular Dynamics 400S PhosphorImager followed by quantitation using ImageQuant software (Molecular Dynamics). […] The apparent fractional occupancy (θapp) of the sites were calculated using the equation: [formula] […]
where [L]tot is the total polyamide concentration, Ka is the equilibrium association constant, and θmin and θmax are the experimentally determined site saturation values when the site is unoccupied or saturated, respectively. […]

[3] = molecular target: DNA; details: from previous reports; cited from earlier work
[4] = tested on: match binding sites (5′-WGCWGCW-3′) on a 241 bp restriction fragment derived from the HIV-1 promoter region; details: sequence 5′-WGCWGCW-3′ in the HIV promoter; literature value; cited from earlier work
[5] = tested on: HIV; details: cell culture; cited from earlier work

O=C(O)CCCc1ccc(N(CCCl)CCCl)cc1 [chlorambucil, 4-[bis(2-chloroethyl)amino]benzene butanoic acid]
half life for hydrolysis of the bis(dichloroethylamino)benzene moiety [1]: approximately 1.3 hours

ImPy-β-ImPy-(R)^CHL(OH)γ-ImPy-β-ImPy-β-Dp [compound 3]
equilibrium association constant Ka ([2]; match site 5′-AGCTGCT-3′): 1.6±0.7×10^10 M^−1 | equilibrium association constant Ka ([2]; match site 5′-TGCAGCA-3′): 1.3±0.7×10^10 M^−1 | affinities for double base pair mismatch sites, fold lower than for the match sites ([2]; mismatch sites 5′-TGTCGCC-3′ and 5′-AGCAGCTC-3′): > 100 fold

ImImPyPy-(R)^H^2^Nγ-ImPyPyPy-β-Dp [polyamide 1′]
binding affinity [3]: subnanomolar

ImPy-β-ImPy-γ-ImPy-β-ImPy-β-Dp [polyamide 1]
binding affinity Ka of unsubstituted polyamide [4]: 2e+10 M⁻¹ | inhibition of HIV replication [5]: inhbit HIV replication
